{"source": "paper PMC6997888", "about": "“Salicylic Acid Targets Protein Phosphatase 2A to Attenuate Growth in Plants” (Current Biology, 2020)", "key": {"[1]": {"target": "T1, PP2AA3 (Arabidopsis thaliana, UniProt Q38951)", "T1 construct": "recombinant His-PP2AA3 (pET28a, coding region)", "T1 sequence (Q38951 1-587)": "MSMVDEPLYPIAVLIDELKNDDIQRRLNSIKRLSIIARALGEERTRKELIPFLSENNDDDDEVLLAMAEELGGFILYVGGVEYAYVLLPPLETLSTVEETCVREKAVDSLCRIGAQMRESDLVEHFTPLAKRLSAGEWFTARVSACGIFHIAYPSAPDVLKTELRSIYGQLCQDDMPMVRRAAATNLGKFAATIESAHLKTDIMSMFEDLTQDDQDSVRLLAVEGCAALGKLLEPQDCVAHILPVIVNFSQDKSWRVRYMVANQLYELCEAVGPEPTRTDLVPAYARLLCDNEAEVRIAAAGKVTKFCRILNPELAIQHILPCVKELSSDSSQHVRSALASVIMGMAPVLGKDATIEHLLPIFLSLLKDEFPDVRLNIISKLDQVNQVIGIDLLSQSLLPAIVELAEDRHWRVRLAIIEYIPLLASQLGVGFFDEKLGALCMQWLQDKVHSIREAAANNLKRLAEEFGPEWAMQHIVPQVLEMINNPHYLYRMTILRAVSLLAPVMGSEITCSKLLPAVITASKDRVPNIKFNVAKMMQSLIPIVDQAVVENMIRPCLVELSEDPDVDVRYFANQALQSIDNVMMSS", "assay": "SPR, steady state; SA-f immobilized on CM5 chip, His-PP2AA3 flowed over", "type": "binding", "source_text": "SPR, steady state; SA-f immobilized on CM5 chip, His-PP2AA3 flowed over on PP2AA3 | The same sensor chip as above was used, and different concentrations of His-PP2AA3 were applied."}, "[2]": {"target": "T2, PP2AA1 (Arabidopsis thaliana, UniProt Q38845)", "T2 construct": "recombinant His-PP2AA1 (pET28a, coding region)", "T2 sequence (Q38845 1-588)": "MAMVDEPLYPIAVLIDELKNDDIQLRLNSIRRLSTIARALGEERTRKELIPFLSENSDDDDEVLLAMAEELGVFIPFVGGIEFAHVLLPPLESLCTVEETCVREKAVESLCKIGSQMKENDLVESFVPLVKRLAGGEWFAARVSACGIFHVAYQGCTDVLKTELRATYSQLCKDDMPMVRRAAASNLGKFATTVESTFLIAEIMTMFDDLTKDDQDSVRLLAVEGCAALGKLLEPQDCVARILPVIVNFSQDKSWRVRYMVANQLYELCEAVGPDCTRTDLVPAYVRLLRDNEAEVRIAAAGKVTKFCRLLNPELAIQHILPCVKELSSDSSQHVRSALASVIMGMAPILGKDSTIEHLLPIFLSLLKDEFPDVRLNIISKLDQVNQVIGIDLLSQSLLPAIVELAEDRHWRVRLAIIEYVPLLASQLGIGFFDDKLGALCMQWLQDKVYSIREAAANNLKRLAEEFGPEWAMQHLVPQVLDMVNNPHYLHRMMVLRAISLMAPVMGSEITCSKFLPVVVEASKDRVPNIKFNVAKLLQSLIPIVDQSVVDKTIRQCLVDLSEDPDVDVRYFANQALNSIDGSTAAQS", "assay": "SPR, steady state; SA-f immobilized on CM5 chip, His-PP2AA1 flowed over", "type": "binding", "source_text": "SPR, steady state; SA-f immobilized on CM5 chip, His-PP2AA1 flowed over on PP2AA1 | An active synthetic SA analog (SA-f) was immobilized on a CM-5 sensor chip, and different concentrations of His-PP2AA1 were applied"}}}
{"smiles": "NCCCCCOc1ccc(O)c(C(=O)O)c1", "note": "[SA-f, 5-((5-aminopentyl)oxy)-2-hydroxybenzoic acid]", "values": [{"measurement": "Kd", "setting": "[1]", "result": 1920, "unit": "nM"}, {"measurement": "Kd", "setting": "[2]", "result": 3620, "unit": "nM"}]}
